Reference: article PMC7924852, “The Emericellipsins A–E from an Alkalophilic Fungus Emericellopsis alkalina Show Potent Activity against Multidrug-Resistant Pathogenic Fungi” (Journal of Fungi, 2021)
Values after ≈ are worked out from the molar mass of the structure shown.

Assays:
[1] = test system: B16 (mouse melanoma cell line); assay: MTT cytotoxicity assay; format: cell-based; conditions: Mus musculus, 72 h, three experiments, each in triplicate
Experimental: (§1) Experiments for determining the cytotoxic activity of the compound in MTT assays were performed as previously described. The following tumor cell lines were used for this study: HCT-116 (colon cancer cell line), B16 (mouse melanoma cell line), K-562 (leukemia cell line), MDA-MB-231 (breast cancer line), and MCF-7 (breast cancer cell). Human postnatal fibroblasts were used as a normal cell line, and doxorubicin was used as a positive control. The cell lines were cultured in Dulbecco modified Eagle’s medium supplemented with 5% fetal calf serum, 2 mM Lglutamine, 100 U/mL penicillin, and […] streptomycin at 37 °C, 5% CO2 in a humidified atmosphere. Experiments were carried out on cells in the logarithmic phase of growth. The peptide was dissolved in DMSO as a 10 mM stock solution, followed by serial dilutions in water immediately before the experiment. Briefly, cells (5 × 10^3 in […] of culture medium) were plated in a 96-well plate and treated with 0.1% DMSO (blank control) or with […] of the peptide (0.10‒50 μM; each concentration in duplicate) for 72 h. After incubation with peptide, […] of aqueous MTT solution (3-(4,5-dimethylthiazol-2-yl)-2,5-diphenyltetrazolium bromide, 5 mg/mL) were added into each well for 2‒3 h. Formazan was dissolved in DMSO, and the absorbance at 570 nm was measured. The cytotoxicity at a given EmiA concentration was calculated as the percentage of absorbance in wells with peptide-treated cells compared to that of blank control cells (100%). The IC50 (50% growth inhibitory concentration) was defined as the concentration of EmiA that inhibited MTT conversion by 50%. All the experiments were repeated three times, each time in triplicate. EmiA was tested at a range of concentrations, 0.1‒10 μM.

[2] = test system: HCT-116 (colon cancer cell line); assay: MTT cytotoxicity assay; format: cell-based; conditions: Homo sapiens, 72 h, three experiments, each in triplicate
Experimental: as §1

[3] = test system: HPF (human postnatal fibroblasts, normal cell line); assay: MTT cytotoxicity assay; format: cell-based; conditions: Homo sapiens, Fibroblast; HPF normal fibroblasts; MTT, 72 h; three experiments, each in triplicate
Experimental: as §1

Candida albicans 1402 [4] = assay: Broth microdilution MIC and MFC (CLSI); format: cell-based; conditions: Candida albicans 1402 clinical isolate; RPMI 1640 pH 7.0, 35 °C, 24 h; read-out: MIC
C. glabrata 1402 [5] = assay: Broth microdilution MIC and MFC (CLSI); format: cell-based; conditions: Nakaseomyces glabratus, 1402, 24 h, pH 7
C. krusei 1447 [6] = assay: Broth microdilution MIC and MFC (CLSI); format: cell-based; conditions: C. krusei 1447; symbol R defined in Table S1
C. tropicalis 156 [7] = assay: Broth microdilution MIC and MFC (CLSI); format: cell-based; conditions: Candida tropicalis; C. tropicalis 156 clinical isolate; RPMI 1640 pH 7.0, 35 °C, 24 h; read-out: MIC
C. parapsilosis 571 [8] = assay: Broth microdilution MIC and MFC (CLSI); format: cell-based; conditions: Lodderomyces parapsilosis, 571, 24 h, pH 7
[9] = test system: Cryptococcus neoformans 297; assay: Broth microdilution MIC and MFC (CLSI); format: cell-based; conditions: Cryptococcus neoformans 297 clinical isolate; RPMI 1640 pH 7.0, 35 °C, 24 h; read-out: MIC
C. laurentii 325m = assay: Broth microdilution MIC and MFC (CLSI); format: cell-based, Cr. laurentii; conditions: Papiliotrema laurentii; C. laurentii 325m clinical isolate; RPMI 1640 pH 7.0, 35 °C, 24 h; read-out: MIC
[10] = test system: clinical yeast isolates (Candida, Cryptococcus); assay: Broth microdilution MIC/MFC, pathogenic multidrug yeast strains; format: cell-based; conditions: whole panel of Candida isolates
Aspergillus niger 1133m = assay: Sensititre YeastOne antifungal susceptibility test; format: cell-based; conditions: Aspergillus niger, 1133M
A. fumigatus 390m = assay: Sensititre YeastOne antifungal susceptibility test; format: cell-based; conditions: Aspergillus fumigatus, 390M
A. terreus 497 = assay: Sensititre YeastOne antifungal susceptibility test; format: cell-based; conditions: Aspergillus terreus, 497
Candida albicans 1402 [11] = assay: Sensititre YeastOne antifungal susceptibility test; format: cell-based; conditions: Candida albicans, 1402
C. glabrata 1402 [12] = assay: Sensititre YeastOne antifungal susceptibility test; format: cell-based; conditions: Nakaseomyces glabratus, 1402
C. krusei 1447 [13] = assay: Sensititre YeastOne antifungal susceptibility test; format: cell-based; conditions: Sensititre YeastOne; C. krusei 1447
C. tropicalis 156 [14] = assay: Sensititre YeastOne antifungal susceptibility test; format: cell-based; conditions: Candida tropicalis; Sensititre YeastOne; C. tropicalis 156 clinical isolate; read-out: MIC
C. parapsilosis 571 [15] = assay: Sensititre YeastOne antifungal susceptibility test; format: cell-based; conditions: Lodderomyces parapsilosis, 571
[16] = test system: Cryptococcus neoformans 297; assay: Sensititre YeastOne antifungal susceptibility test; format: cell-based; conditions: Sensititre YeastOne; Cryptococcus neoformans 297 clinical isolate; read-out: MIC
Cr. laurentii 325m = assay: Sensititre YeastOne antifungal susceptibility test; format: cell-based; conditions: Papiliotrema laurentii; Sensititre YeastOne; Cr. laurentii 325m clinical isolate; read-out: MIC

In the case of `COc1cccc2c1C(=O)c1c(O)c3c(c(O)c1C2=O)C[C@@](O)(C(=O)CO)C[C@@H]3O[C@H]1C[C@H](N)[C@H](O)[C@H](C)O1` [Doxorubicin], the IC50 [1] is reported as 600 ± 70 nM, the IC50 [2] is reported as 200 ± 30 nM and the IC50 [3] is reported as 200 ± 30 nM.
In the case of `OC(Cn1cncn1)(Cn1cncn1)c1ccc(F)cc1F` [FZ, Fluconazole], the MIC (Candida albicans 1402 [4]) is reported as 64 µg/mL (≈ 209 µM), the MIC (C. glabrata 1402 [5]) is reported as 128 µg/mL (≈ 418 µM) and the “MIC (class symbol)” value (C. krusei 1447 [6]) is reported as “R”. For the same compound, the MIC (C. tropicalis 156 [7]) was 64 µg/mL (≈ 209 µM), the MIC (C. parapsilosis 571 [8]) was 128 µg/mL (≈ 418 µM) and the MIC [9] was 16 µg/mL (≈ 52.2 µM). For the same compound, the MIC (C. laurentii 325m) was 32 µg/mL (≈ 104 µM), the “antifungal activity (in words)” value [10] was “little or no activity” and the MIC (Aspergillus niger 1133m) was > 256 µg/mL. For the same compound, the MIC (A. fumigatus 390m) was > 256 µg/mL, the MIC (A. terreus 497) was > 256 µg/mL and the MIC (Candida albicans 1402 [11]) was 256 µg/mL (≈ 836 µM). For the same compound, the MIC (C. glabrata 1402 [12]) was > 256 µg/mL, the “MIC (class symbol)” value (C. krusei 1447 [13]) was “R” and the MIC (C. tropicalis 156 [14]) was 64 µg/mL (≈ 209 µM). For the same compound, the MIC (C. parapsilosis 571 [15]) was 128 µg/mL (≈ 418 µM), the MIC [16] was 16 µg/mL (≈ 52.2 µM) and the MIC (Cr. laurentii 325m) was 32 µg/mL (≈ 104 µM).
